# Tested on: Mycobacterium tuberculosis
# Test: Antitubercular activity against Mycobacterium tuberculosis H37Rv after 6 weeks
# Type: functional
row,Compound,MIC [µg/mL]
1,COc1cc(C2CC(c3ccc(F)cc3)=NN2C(C)=O)cc(N)c1O (stereo not given),12.5
2,COc1cc(C2CC(c3ccccc3Br)=NN2C(C)=O)cc2nc(N)oc12 (stereo not given),12.5
3,COc1cc(C2CC(c3ccc(Cl)cc3Cl)=NN2C(C)=O)cc(N)c1O (stereo not given),12.5
4,COc1cc(C2CC(c3ccc(F)cc3)=NN2C(C)=O)cc2nc(N)oc12 (stereo not given),6.25
5,CC(=O)N1N=C(c2ccccc2Br)CC1c1cc(Cl)c2oc(S)nc2c1 (stereo not given),6.25
6,CC(=O)N1N=C(c2ccccc2)CC1c1ccc(O)c(N)c1 (stereo not given),1.25
7,COc1cc(C2CC(c3ccccc3)=NN2C(C)=O)cc2nc(N)oc12 (stereo not given),0.625
8,COc1cc(C2CC(c3ccccc3)=NN2C(C)=O)cc2nc(S)oc12 (stereo not given),6.25
9,NNC(=O)c1ccncc1 [ISONIAZID],0.625
10,CC(=O)N1N=C(c2ccccc2Br)CC1c1ccc2oc(N)nc2c1 (stereo not given),25
11,CC(=O)N1N=C(c2ccccc2Br)CC1c1cc(N)c(O)c(Cl)c1 (stereo not given),12.5
12,COc1cc(C2CC(c3ccccc3Br)=NN2C(C)=O)cc2nc(S)oc12 (stereo not given),12.5
13,CC(=O)N1N=C(c2ccccc2)CC1c1cc(Cl)c2oc(N)nc2c1 (stereo not given),25
14,CC(=O)N1N=C(c2ccccc2Br)CC1c1cc(Cl)c2oc(N)nc2c1 (stereo not given),3.25
15,COc1cc(C2CC(c3ccccc3)=NN2C(C)=O)cc(N)c1O (stereo not given),25
16,COc1cc(C2CC(c3ccc(Cl)cc3Cl)=NN2C(C)=O)cc2nc(N)oc12 (stereo not given),12.5
17,CC(=O)N1N=C(c2ccccc2)CC1c1ccc2oc(N)nc2c1 (stereo not given),25
18,CC(=O)N1N=C(c2ccccc2)CC1c1cc(Cl)c2oc(S)nc2c1 (stereo not given),1.25
19,COc1cc(C2CC(c3ccccc3Br)=NN2C(C)=O)cc(N)c1O (stereo not given),12.5
20,CC(=O)N1N=C(c2ccccc2)CC1c1ccc2oc(S)nc2c1 (stereo not given),25
21,COc1cc(C2CC(c3ccc(Cl)cc3Cl)=NN2C(C)=O)cc2nc(S)oc12 (stereo not given),6.25
22,COc1cc(C2CC(c3ccc(F)cc3)=NN2C(C)=O)cc2nc(S)oc12 (stereo not given),12.5
23,CC(=O)N1N=C(c2ccccc2Br)CC1c1ccc2oc(S)nc2c1 (stereo not given),12.5
24,CC(=O)N1N=C(c2ccccc2)CC1c1cc(N)c(O)c(Cl)c1 (stereo not given),3.25
25,CC(=O)N1N=C(c2ccccc2Br)CC1c1ccc(O)c(N)c1 (stereo not given),0.625
